Measurements as given in PMC5618632, “In Vitro Glucuronidation of Wushanicaritin by Liver Microsomes, Intestine Microsomes and Expressed Human UDP-Glucuronosyltransferase Enzymes” (International Journal of Molecular Sciences, 2017).
“And” between values parts separate entries of the source, which are not always exact repeats. Equal values may be shown once.

Assays:
UGT2B7 = target: T1, UGT2B7 (Homo sapiens, UniProt P16662); experiment: Glucuronidation by expressed UGT2B7
T1 sequence (P16662 24-529): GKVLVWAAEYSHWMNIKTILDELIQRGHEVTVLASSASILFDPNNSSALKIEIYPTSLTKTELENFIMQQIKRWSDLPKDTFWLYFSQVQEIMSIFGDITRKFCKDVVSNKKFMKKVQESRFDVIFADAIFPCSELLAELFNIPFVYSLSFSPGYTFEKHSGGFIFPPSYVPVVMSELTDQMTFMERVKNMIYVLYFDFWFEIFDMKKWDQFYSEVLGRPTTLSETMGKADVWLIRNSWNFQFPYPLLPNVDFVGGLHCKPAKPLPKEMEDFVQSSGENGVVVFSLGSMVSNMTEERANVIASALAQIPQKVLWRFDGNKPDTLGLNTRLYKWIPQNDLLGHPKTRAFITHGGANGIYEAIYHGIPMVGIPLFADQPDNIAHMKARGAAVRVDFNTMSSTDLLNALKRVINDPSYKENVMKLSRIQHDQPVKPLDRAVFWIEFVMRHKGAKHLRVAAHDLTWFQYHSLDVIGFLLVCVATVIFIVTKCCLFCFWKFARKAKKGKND
Procedure: (§1) The reaction was terminated by adding ice-cold acetonitrile. […] All experiments were performed in triplicate.
(§2) The gradient elution program was the same as the UPLC condition of the structural identification of wushanicaritin glucuronides above. The detection wavelength was set at 270 nm, and the injection volume was 8 µL.
(§3) The parameter were as follow. V is the formation rate of the product. Vmax is the maximal velocity. […] Ksi is the substrate inhibition constant. […] (1) V=Vmax ×[S]/Km+[S] (2) V=Vmax ×[S]/Km + [S](1+[S]/Ksi)
(§4) The contribution of individual expressed UGT enzymes to wushanicaritin glucuronidation in HLM was evaluated by the relative activity factor (RAF) approach as described in previous studies. The relative activity factor was defined as the activity ratio of HLM to an expressed UGT enzyme (Supersome) toward a probe substrate for this enzyme using Equation (3). The relative amount of wushanicaritin glucuronidation in HLM attributed to an expressed UGT enzyme was estimated by multiplying the glucuronidation activity (i.e., the intrinsic clearance) derived with this enzyme by the corresponding RAF. […] The contributions of individual UGT enzyme were calculated according to Equation (4). (3) RAF=CLint{probe,pHLM}/CLint{probe,Supersome} (4) Contribution of UGTs=CLint(wushanica ritin,UGTs)/CLint(wushanica ritin,pHLM)×RAF

[1] = Glucuronidation by pooled human liver microsomes (HLM), UDPGA-supplemented; type: in vitro ADME; conditions: for microsomal CLint / Km: human, pooled liver microsomes
Procedure: as §1, §3

expressed human UGT1A3 = target: T2, expressed human UGT1A3 (Homo sapiens, UniProt P35503); experiment: Glucuronidation by expressed UGT1A3; type: in vitro ADME; conditions: relative activity factor for UGT1A3 = CLint(probe, pHLM)/CLint(probe, Supersome)
T2 construct: purchased Corning Biosciences
T2 sequence (P35503 29-534): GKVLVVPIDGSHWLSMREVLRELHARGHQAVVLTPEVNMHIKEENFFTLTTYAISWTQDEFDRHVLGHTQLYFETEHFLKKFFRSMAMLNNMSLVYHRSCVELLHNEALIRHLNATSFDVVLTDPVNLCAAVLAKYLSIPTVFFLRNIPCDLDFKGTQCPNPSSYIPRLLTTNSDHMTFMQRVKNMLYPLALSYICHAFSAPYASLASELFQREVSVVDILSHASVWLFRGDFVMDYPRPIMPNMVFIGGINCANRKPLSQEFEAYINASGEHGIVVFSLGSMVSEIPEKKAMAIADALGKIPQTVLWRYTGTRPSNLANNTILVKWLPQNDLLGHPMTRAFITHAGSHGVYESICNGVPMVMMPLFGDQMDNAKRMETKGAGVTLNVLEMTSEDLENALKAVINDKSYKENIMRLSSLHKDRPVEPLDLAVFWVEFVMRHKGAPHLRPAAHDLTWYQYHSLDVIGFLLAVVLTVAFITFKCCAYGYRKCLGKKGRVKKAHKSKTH
Procedure: as §1
(§5) A series of working solutions of wushanicaritin were determined by the Acquity™ UPLC I-Class system equipped with a BEH C18 column (2.1 mm × 50 mm, 1.7 µm, Waters, Ireland, Part No. 186002350). The gradient elution program was the same as the UPLC condition of the structural identification of wushanicaritin glucuronides above. The detection wavelength was set at 270 nm, and the injection volume was 8 µL.
as §3
as §4, with “(3) RAF=CLint{probe,pHLM}/CLint{probe,Supersome} (4) Contribution of UGTs=CLint(wushanica ritin,UGTs)/CLint(wushanica ritin,pHLM)×RAF” left out

UGT1A3 = target: T3, UGT1A3 (Homo sapiens, UniProt P35503); experiment: Glucuronidation by expressed UGT1A3; type: in vitro ADME; conditions: human, expressed UGT1A3 (Supersome); probe substrate glucuronidation; UGT1A3
T3 construct: purchased Corning Biosciences
T3 sequence (P35503 29-534): T2 sequence (P35503 29-534)
Procedure: as §1, §5, §3
as §4, with “(3) RAF=CLint{probe,pHLM}/CLint{probe,Supersome} (4) Contribution of UGTs=CLint(wushanica ritin,UGTs)/CLint(wushanica ritin,pHLM)×RAF” left out

[2] = Glucuronidation by rat liver microsomes (RLM); type: in vitro ADME; conditions: for Km: rat, liver microsomes, read-out: Km or S50; for Ki: substrate inhibition constant
Procedure: as §1, §3

[3] = human, pH 7.4
Procedure: Wushanicaritin was incubated with HLM, HIM and expressed UGTs enzymes to determine the rates of glucuronidation as published previously [12, 23, 31]. Briefly, the incubation mixture mainly contained 50 mM Tris-hydrochloric acid buffer (pH 7.4), 0.88 mM MgCl2, 22 µg/mL alamethicin, 4.4 mM saccharolactone and 3.5 mM UDPGA [32]. The reaction was terminated by adding ice-cold acetonitrile. The samples were vortexed and centrifuged at 13,800× g for 10 min. The supernatant was subjected to UPLC/Q-TOF-MS (Waters Corporation, Manchester, UK) analysis. […] Similarly, wushanicaritin was incubated with DLM, RLM, MkLM, RaLM and GpLM in the same way as for HLM. All experiments were performed in triplicate. Preliminary experiments were performed to ensure that the rates of glucuronidation were determined under linear conditions with respect to the incubation time and protein concentration.
Serial concentrations of wushanicaritin (0.156–20 µM) were incubated with HLM, HIM and expressed UGTs enzymes to determine wushanicaritin glucuronidation rates. […] Appropriate models were selected by visual inspection of the Eadie–Hofstee plot [34]. Model fitting and parameter estimation were performed by GraphPad Prism V5 software (GraphPad Software, Inc., San Diego, CA, USA).
V is the formation rate of the product. Vmax is the maximal velocity. Km is the Michaelis constant, and [S] is the substrate. […]

[4] = Glucuronidation by human intestine microsomes (HIM); type: in vitro ADME; conditions: for Km: human, intestine microsomes, read-out: Km or S50
Procedure: as §1, §3

[5] = Glucuronidation by rabbit liver microsomes (RaLM); type: in vitro ADME; conditions: for Km: rabbit, liver microsomes, read-out: Km or S50
Procedure: as §1, §3

[6] = Glucuronidation by monkey liver microsomes (MkLM); type: in vitro ADME; conditions: for Km: monkey, liver microsomes, read-out: Km or S50; for Ki: substrate inhibition constant
Procedure: as §1, §3

[7] = Glucuronidation by guinea pig liver microsomes (GpLM); type: in vitro ADME; conditions: for Km: guinea pig, liver microsomes, read-out: Km or S50
Procedure: as §1, §3

[8] = design: method as in PMID 21968061; conditions: DPPH radical scavenging (antioxidant activity); cited from earlier work
[9] = Glucuronidation by dog liver microsomes (DLM); type: in vitro ADME; conditions: for Km: dog, liver microsomes, read-out: Km or S50; for Ki: substrate inhibition constant
Procedure: as §1, §3

expressed human UGT1A1 = target: T4, expressed human UGT1A1 (Homo sapiens, UniProt P22309); experiment: Glucuronidation by expressed UGT1A1; conditions: substrate inhibition constant; formation of G1 (3-O-glucuronide); UGT1A1
T4 sequence (P22309 26-533): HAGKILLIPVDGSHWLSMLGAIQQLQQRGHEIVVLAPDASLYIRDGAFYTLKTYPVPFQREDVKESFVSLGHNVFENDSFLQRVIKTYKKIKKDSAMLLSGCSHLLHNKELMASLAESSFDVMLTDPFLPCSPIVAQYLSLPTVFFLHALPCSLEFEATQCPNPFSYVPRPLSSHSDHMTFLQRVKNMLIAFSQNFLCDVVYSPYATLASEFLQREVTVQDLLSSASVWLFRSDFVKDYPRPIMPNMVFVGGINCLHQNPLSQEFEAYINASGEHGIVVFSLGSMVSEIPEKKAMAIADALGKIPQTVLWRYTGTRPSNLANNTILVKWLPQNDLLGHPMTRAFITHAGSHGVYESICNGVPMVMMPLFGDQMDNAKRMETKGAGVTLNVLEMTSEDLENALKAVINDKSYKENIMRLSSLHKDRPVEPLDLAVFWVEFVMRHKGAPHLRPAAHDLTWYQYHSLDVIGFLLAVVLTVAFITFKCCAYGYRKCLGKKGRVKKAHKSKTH
Procedure: as §1, §2, §3, §4

not read [10] = substrate: COc1ccc(-c2oc3c(CCC(C)(C)O)c(O)cc(O)c3c(=O)c2O)cc1; experiment: not read; conditions: UGT1A9, pH 7.4
Procedure: Briefly, the incubation mixture mainly contained 50 mM Tris-hydrochloric acid buffer (pH 7.4), 0.88 mM MgCl2, 22 µg/mL alamethicin, 4.4 mM saccharolactone and 3.5 mM UDPGA [32]. The reaction was terminated by adding ice-cold acetonitrile. […] The supernatant was subjected to UPLC/Q-TOF-MS (Waters Corporation, Manchester, UK) analysis. […] All experiments were performed in triplicate. Preliminary experiments were performed to ensure that the rates of glucuronidation were determined under linear conditions with respect to the incubation time and protein concentration.
Appropriate models were selected by visual inspection of the Eadie–Hofstee plot [34]. Model fitting and parameter estimation were performed by GraphPad Prism V5 software (GraphPad Software, Inc., San Diego, CA, USA).
V is the formation rate of the product. Vmax is the maximal velocity. Km is the Michaelis constant, and [S] is the substrate. Ksi is the substrate inhibition constant. The intrinsic clearance (CLint) was derived by Vmax/Km for the Michaelis–Menten and substrate inhibition models [12]. (1) V=Vmax ×[S]/Km+[S] (2) V=Vmax ×[S]/Km + [S](1+[S]/Ksi)
The contribution of individual expressed UGT enzymes to wushanicaritin glucuronidation in HLM was evaluated by the relative activity factor (RAF) approach as described in previous studies [2, 12]. The relative activity factor was defined as the activity ratio of HLM to an expressed UGT enzyme (Supersome) toward a probe substrate for this enzyme using Equation (3). The relative amount of wushanicaritin glucuronidation in HLM attributed to an expressed UGT enzyme was estimated by multiplying the glucuronidation activity (i.e., the intrinsic clearance) derived with this enzyme by the corresponding RAF. […] The contributions of individual UGT enzyme were calculated according to Equation (4). (3) RAF=CLint{probe,pHLM}/CLint{probe,Supersome} (4) Contribution of UGTs=CLint(wushanica ritin,UGTs)/CLint(wushanica ritin,pHLM)×RAF

not read [11] = substrate: CC(C)c1cccc(C(C)C)c1O; experiment: not read; conditions: other: probe substrate glucuronidation; UGT1A9; pH 7.4
[12] = probe substrate glucuronidation
[13] = probe substrate glucuronidation, read-out: Km
[14] = formation of G1 (3-O-glucuronide)
[15] = formation of G2 (7-O-glucuronide)
[16] = pH 7.4, formation of G1 (3-O-glucuronide)
[17] = pH 7.4, formation of G2 (7-O-glucuronide)
[18] = other: formation of G1 (3-O-glucuronide)
[19] = other: formation of G2 (7-O-glucuronide)

Molecule `Cc1cn([C@H]2C[C@H](N=[N+]=[N-])[C@@H](CO)O2)c(=O)[nH]c1=O` [AZT, zidovudine, reference compound] has a Km (UGT2B7) of 1600 ± 121 µM, a microsomal CLint (UGT2B7; expressed UGT2B7 (Supersome)) of 0.26 ± 0.02 µL/min/mg and a microsomal CLint [1, 12] of 0.27 ± 0.02 µL/min/mg. The Km [1, 13] was 4360 ± 341 µM and the Vmax [1, 12] was 1.18 ± 0.53 nmol/min/mg.

Work on `C[C@H](CCC(=O)O)[C@H]1CC[C@H]2[C@@H]3[C@H](O)C[C@@H]4C[C@H](O)CC[C@]4(C)[C@H]3CC[C@]12C` [CDCA, chenodeoxycholic acid, reference compound] yielded an RAF (expressed human UGT1A3) of 0.48, a microsomal CLint (UGT1A3) of 18.5 ± 1.28 µL/min/mg and a microsomal CLint [1, 12] of 8.86 ± 0.74 µL/min/mg. For the same molecule, the Km [1, 13] was 14.3 ± 1.16 µM and the Vmax [1, 12] was 0.13 ± 0.003 nmol/min/mg.

In the case of `COc1ccc(-c2oc3c(CCC(C)(C)O)c(O)cc(O)c3c(=O)c2O)cc1` [wushanicaritin], the Vmax [2, 14] is reported as 0.34 ± 0.01 nmol/min/mg, the Vmax [2, 15] is reported as 0.37 ± 0.009 nmol/min/mg and the Km [2, 16] is reported as 0.66 ± 0.06 µM. The Km [2, 17] was 0.45 ± 0.03 µM, the Ki [2, 14] was 37.11 ± 5.82 µM and the Ki [2, 15] was 44.22 ± 5.42 µM. The “species difference in hepatic glucuronidation” value ([3]; dog, rat, monkey, rabbit, guinea pig) was “up to 60.0 fold”, the “variability of kinetic parameters, rat versus humans” value [3] was ≤ 2.5 fold and the Vmax [4, 14] was 0.74 nmol/min/mg and 0.74 ± 0.05 nmol/min/mg. For the same molecule, the Vmax [4, 15] was 1.34 nmol/min/mg and 1.34 ± 0.10 nmol/min/mg, the Km [4, 16] was 4.24 ± 0.75 µM and the Km [4, 17] was 5.91 ± 1.1 µM. The Vmax [5, 14] was 0.11 ± 0.004 nmol/min/mg, the Vmax [5, 15] was 0.56 ± 0.02 nmol/min/mg and the Km [5, 16] was 2.22 ± 0.26 µM. It also gave a Km [5, 17] of 3.29 ± 0.39 µM, a Vmax [6, 14] of 0.22 ± 0.02 nmol/min/mg and a Vmax [6, 15] of 0.21 ± 0.008 nmol/min/mg. The Km [6, 16] was 1.58 ± 0.25 µM, the Km [6, 17] was 0.94 ± 0.08 µM and the Ki [6, 14] was 11.57 ± 2.15 µM. It also gave a Ki [6, 15] of 36.23 ± 5.13 µM, a Vmax [7, 14] of 0.05 ± 0.002 nmol/min/mg and a Vmax [7, 15] of 1.43 ± 0.06 nmol/min/mg. For the same molecule, the Km [7, 16] was 2.53 ± 0.3 µM, the Km [7, 17] was 0.93 ± 0.06 µM and the IC50 [8] was 35.3 µM. The Km [9, 16] was 1.11 ± 0.16 µM, the Km [9, 17] was 1.17 ± 0.13 µM and the Vmax [9, 14] was 0.19 ± 0.01 nmol/min/mg. For the same molecule, the Vmax [9, 15] was 0.32 ± 0.02 nmol/min/mg, the Ki [9, 14] was 29.09 ± 6.58 µM and the Ki [9, 15] was 44.14 ± 9.09 µM. The Ki (expressed human UGT1A1) was 17.150 ± 4.478 µM, the Vmax [1, 14] was 1.34 nmol/min/mg and 1.34 ± 0.08 nmol/min/mg and the Vmax [1, 15] was 0.35 nmol/min/mg and 0.35 ± 0.01 nmol/min/mg. For the same molecule, the Km ([1]; pH 7.4, formation of G1 (3-O-glucuronide), read-out: Km or S50) was 1.07 ± 0.13 µM, the Km ([1]; pH 7.4, formation of G2 (7-O-glucuronide), read-out: Km or S50) was 0.5 ± 0.08 µM and the Ki ([1]; substrate inhibition constant, formation of G1 (3-O-glucuronide)) was 32.99 µM and 32.990 ± 6.717 µM.

B1: expressed human UGT1A9 (Homo sapiens) (protein)
chain: GKLLVVPMDGSHWFTMRSVVEKLILRGHEVVVVMPEVSWQLGRSLNCTVKTYSTSYTLEDLDREFKAFAHAQWKAQVRSIYSLLMGSYNDIFDLFFSNCRSLFKDKKLVEYLKESSFDAVFLDPFDNCGLIVAKYFSLPSVVFARGILCHYLEEGAQCPAPLSYVPRILLGFSDAMTFKERVRNHIMHLEEHLLCHRFFKNALEIASEILQTPVTEYDLYSHTSIWLLRTDFVLDYPKPVMPNMIFIGGINCHQGKPLPMEFEAYINASGEHGIVVFSLGSMVSEIPEKKAMAIADALGKIPQTVLWRYTGTRPSNLANNTILVKWLPQNDLLGHPMTRAFITHAGSHGVYESICNGVPMVMMPLFGDQMDNAKRMETKGAGVTLNVLEMTSEDLENALKAVINDKSYKENIMRLSSLHKDRPVEPLDLAVFWVEFVMRHKGAPHLRPAAHDLTWYQYHSLDVIGFLLAVVLTVAFITFKCCAYGYRKCLGKKGRVKKAHKSKTH
B1 gave a K0.5 (not read [10]; [18]) of 0.32 ± 0.03 µM, a Vmax (not read [10]; [18]) of 8e-05 µmol/min/mg and a Vmax/Km (not read [10]; [18]) of 240 µL/min/mg. For the same molecule, the K0.5 (not read [10]; [19]) was 0.39 ± 0.06 µM, the Vmax (not read [10]; [19]) was 0.00011 µmol/min/mg and the Vmax/Km (not read [10]; [19]) was 270 µL/min/mg. It also gave a Km (not read [11]) of 45.91 ± 5.91 µM.
